Experimental data from patent publication US11369583B2, “Long-acting prodrugs of rasagiline, preparing methods and uses thereof” (GUANGZHOU HENOVCOM BIOSCIENCE CO. LTD, priority 2017, dated 2022).
Converted amounts (≈) assume the structure as drawn. Read-outs that look alike come from different tables or passages of the source.

Tests used:
[1] = Solubility of prodrug compounds of Rasagiline in phosphate buffer pH 7.4; format: physicochemical
From the text: A melting point and solubility (phosphate buffer with pH of 7.4) of synthesized prodrug compounds of Rasagiline were detected, and the results are shown in table 1: […]

[2] = Pharmacokinetics experiment: Rasagiline in blood plasma after intramuscular injection of prodrug suspensions into beagles; format: in vivo; conditions: beagle, intramuscular injectable suspension
Method: One common male beagle was used for each group, and they were forbidden to eat for 12 hours before administering drugs, and drank water freely meanwhile. Injectable suspensions of Example 13, Example 15, Example 14, Example 20, Example 8 were intramuscularly injected in a dosage of 0.47 mg/kg Rasagiline (1.72 mg/kg, 1.56 mg/kg, 1.64 mg/kg, 1.80 mg/kg, 1.16 mg/kg of prodrug respectively after conversion).
Treatment of blood plasma sample: The blood plasma sample was placed in an ice bath; 30 μL of methanol and 20 μL of interior label (2 μg/mL apigenin dissolved in 50% methanol) were added into 200 μL of the blood plasma sample and mixed through vortex, and then 4 mL of ethyl acetate was added and mixed through vortex. After being centrifuged at 9000 g for 2 minutes, an organic phase was separated and dried in vacuum, and then 150 μL of methanol was added for re-dissolution. 30 μL of a prepared sample was taken for analyzing.
Data analysis: The sample was detected by LC-MS/MS, and analyzed by a DAS 2.0 software to calculate pharmacokinetic parameters according to blood drug concentration, providing parameters such as AUC (0-t), AUC(0-∞), MRT(0-t), MRT(0-∞), Cmax, Tmax, and t1/2, etc.

[3] = target: Monoamine oxidase (MAO-B) (Homo sapiens, UniProt P27338); conditions: monoamine oxidase inhibitor; stronger than Selegiline; cited from earlier work
Monoamine oxidase (MAO-B), sequence (P27338 whole entry, species assumed): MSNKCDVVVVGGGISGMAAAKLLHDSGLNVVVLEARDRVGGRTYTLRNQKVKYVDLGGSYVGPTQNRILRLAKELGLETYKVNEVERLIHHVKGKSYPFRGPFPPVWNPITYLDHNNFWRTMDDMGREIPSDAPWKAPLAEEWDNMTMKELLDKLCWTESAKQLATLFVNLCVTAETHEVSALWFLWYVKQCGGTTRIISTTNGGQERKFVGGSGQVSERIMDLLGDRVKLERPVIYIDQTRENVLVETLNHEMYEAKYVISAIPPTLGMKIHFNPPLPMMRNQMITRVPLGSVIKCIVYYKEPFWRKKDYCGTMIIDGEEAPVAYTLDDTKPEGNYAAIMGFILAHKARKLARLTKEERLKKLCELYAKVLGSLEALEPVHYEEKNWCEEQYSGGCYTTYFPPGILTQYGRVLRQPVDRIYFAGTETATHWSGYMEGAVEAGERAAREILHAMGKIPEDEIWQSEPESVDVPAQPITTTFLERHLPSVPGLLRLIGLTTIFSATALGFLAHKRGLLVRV

[4] = pH 7.4, aqueous buffer, phosphate buffer with pH of 7.4, read-out: SOLUBILITY

Row | Molecule | solubility [1, 4] | melting point | further results
1 | C#CCN(C(=O)OCOC(=O)CCCCCCCCCCCCCCC)[C@@H]1CCc2ccccc21 [Example 1, methyl ((Rasagiline-N-formyl)oxy)-palmitate] | < 5 µg/mL | < 25 °C | 
2 | C#CCN(C(=O)OCOC(=O)Cc1cccc2ccccc12)[C@@H]1CCc2ccccc21 [Example 2, methyl ((Rasagiline-N-formyl)oxy)-naphthalene acetate] | < 5 µg/mL | 66 to 70 °C | 
3 | C#CCN(C(=O)OCOC(=O)CCCCCCCCCCCCCCCCC)[C@@H]1CCc2ccccc21 [Example 3, methyl ((Rasagiline-N-formyl)oxy)-stearate] | < 5 µg/mL | < 25 °C | 
4 | C#CCN(C(=O)OCOC(=O)C(C)(C)C)[C@@H]1CCc2ccccc21 [Example 4, methyl ((Rasagiline-N-formyl)oxy)-pivalate] | < 5 µg/mL | < 25 °C | 
5 | C#CCN(C(=O)OCOC(=O)CCCCCCCCCCCCCCCCCCC)[C@@H]1CCc2ccccc21 [Example 5, methyl ((Rasagiline-N-formyl)oxy)-icosanoate] | < 5 µg/mL | < 25 °C | 
6 | C#CCN(C(=O)OCOC(=O)CC[C@@H](C)C1CCC2C3C[C@H](O)[C@@H]4C[C@H](O)CC[C@]4(C)C3CC[C@@]21C)[C@@H]1CCc2ccccc21 (some centres unmarked) [Example 6, methyl ((Rasagiline-N-formyl)oxy)-hyodeoxycholate] |  | < 50 °C | solubility ([1]; pH 7.4, aqueous buffer): < 5 µg/mL
7 | C#CCN(C(=O)OCOC(=O)CCCC[C@@H]1SC[C@@H]2NC(=O)N[C@@H]21)[C@@H]1CCc2ccccc21 [Example 7, methyl ((Rasagiline-N-formyl)oxy)-biotin methyl ester] | 31.7 µg/mL (≈ 67.2 µM) |  | 
8 | C#CCN(C(=O)OCOC(=O)/C=C/c1ccc(O)c(OC)c1)[C@@H]1CCc2ccccc21 [Example 8, methyl ((Rasagiline-N-formyl)oxy)-ferulate] | < 5 µg/mL | 130.4 to 133.8 °C | 
9 | C#CCN(C(=O)OCOC(=O)CC[C@@H](C)C1CCC2C3C(CC[C@@]21C)[C@@]1(C)CC[C@@H](O)C[C@H]1C[C@H]3O)[C@@H]1CCc2ccccc21 (some centres unmarked) [Example 9, methyl ((Rasagiline-N-formyl)oxy)-chenodeoxycholate] |  | < 50 °C | solubility ([1]; pH 7.4, aqueous buffer): < 5 µg/mL
10 | C#CCN(C(=O)OCOC(=O)CC[C@@H](C)C1CCC2C3C(CC[C@@]21C)[C@@]1(C)CC[C@@H](O)C[C@H]1C[C@@H]3O)[C@@H]1CCc2ccccc21 (some centres unmarked) [Example 10, methyl ((Rasagiline-N-formyl)oxy)-ursodesoxycholate] |  | < 50 °C | solubility ([1]; pH 7.4, aqueous buffer): < 5 µg/mL
11 | C#CCN(C(=O)OCOC(=O)CC[C@@H](C)C1CCC2C3CC[C@@H]4C[C@H](O)CC[C@]4(C)C3C[C@H](O)[C@@]21C)[C@@H]1CCc2ccccc21 (some centres unmarked) [Example 11, methyl ((Rasagiline-N-formyl)oxy)-deoxycholate] |  | < 50 °C | solubility ([1]; pH 7.4, aqueous buffer): < 5 µg/mL
12 | C#CCN(C(=O)OCOC(=O)CCCCCNC(=O)CCCCCCCCCCCCCCCCCCC)[C@@H]1CCc2ccccc21 [Example 12, methyl ((Rasagiline-N-formyl)oxy)-icosanamidohexanoate] | < 5 µg/mL | 77.2 to 80.8 °C | 
13 | C#CCN(C(=O)OCOC(=O)CCCNC(=O)CCCCCCCCCCCCCCCCCCC)[C@@H]1CCc2ccccc21 [Example 13, methyl ((Rasagiline-N-formyl)oxy)-icosanamidobutanoate] | < 5 µg/mL | 80 to 82 °C | release of the prodrug and conversion into Rasagiline (in words) [2]: steadier
14 | C#CCN[C@@H]1CCc2ccccc21 [Rasagiline] |  |  | inhibiting effect compared to Selegiline [3]: 5-10 times
15 | methyl ((Rasagiline-N-formyl)oxy)4-stearamidohexanoate [Example 18] |  |  | solubility ([1]; pH 7.4): <5 µg/mL

Further lines, with some results ahead:

Row | solubility [1, 4] | melting point | Molecule | further results
16 | < 5 µg/mL | 76 to 78 °C | C#CCN(C(=O)OCOC(=O)CCCNC(=O)CCCCCCCCCCCCCCCCC)[C@@H]1CCc2ccccc21 [Example 14, methyl ((Rasagiline-N-formyl)oxy)-stearamidobutanoate] | 
17 | < 5 µg/mL | 73 to 75 °C | C#CCN(C(=O)OCOC(=O)CCCNC(=O)CCCCCCCCCCCCCCC)[C@@H]1CCc2ccccc21 [Example 15, methyl ((Rasagiline-N-formyl)oxy)-palmitamidobutanoate] | 
18 | < 5 µg/mL | 56.1 to 59.4 °C | C#CCN(C(=O)OCOC(=O)CCCNC(=O)CCCCCCCCCCC)[C@@H]1CCc2ccccc21 [Example 16, methyl ((Rasagiline-N-formyl)oxy)4-dodecanamidobutanoate] | 
19 | < 5 µg/mL | 66.3 to 71.8 °C | C#CCN(C(=O)OCOC(=O)CCCNC(=O)CCCCCCCCCCCCC)[C@@H]1CCc2ccccc21 [Example 17, methyl ((Rasagiline-N-formyl)oxy)4-tetradecanamidobutanorate] | 
20 | < 5 µg/mL | 55.4 to 56.2 °C | C#CCN(C(=O)OCOC(=O)CCCNC(=O)CCCCCCCCCCCCCCCCCCCCC)[C@@H]1CCc2ccccc21 [Example 20, methyl ((Rasagiline-N-formyl)oxy)4-docosanamidobutanoate] | release of the prodrug and conversion into Rasagiline (in words) [2]: steadier
21 | < 5 µg/mL | 58.3 to 58.9 °C | C#CCN(C(=O)OCOC(=O)CCCCNC(=O)CCCCCCCCCCCCCCC)[C@@H]1CCc2ccccc21 [Example 21, methyl ((Rasagiline-N-formyl)oxy)5-palmitamidopentanoate] | 
22 | < 5 µg/mL | 75.3 to 77.1 °C | C#CCN(C(=O)OCOC(=O)CCCCNC(=O)CCCCCCCCCCCCCCCCC)[C@@H]1CCc2ccccc21 [Example 22, methyl ((Rasagiline-N-formyl)oxy)5-stearamidopentanoate] | 
23 | < 5 µg/mL |  | C#CCN(C(=O)OCOC(=O)CCC(=O)NCCCCCCCCCCCCCCCCCC)[C@@H]1CCc2ccccc21 [Example 23, methyl ((Rasagiline-N-formyl)oxy)4-octadecylamidosuccinate] | 
